According to patent US20100292231A1, “Indazole Compounds for Treating Inflammatory Disorders, Demyelinating Disorders and Cancers” (priority 2007, published 2010):
pEC50, pIC50: −log10 of the molar value.

Tests used:
FLT3 = target: T1, FLT3 (Homo sapiens, UniProt P36888); assay: SelectScreen FLT3 kinase dose response assay; assay type: biochemical; settings: ATP 100 micromolar; for pEC50: dose response, 4 parameter Hill equation, read-out: FLT3 Inhibition EC50
T1 construct: purchased Invitrogen (SelectScreen platform)
T1 sequence (P36888 27-993): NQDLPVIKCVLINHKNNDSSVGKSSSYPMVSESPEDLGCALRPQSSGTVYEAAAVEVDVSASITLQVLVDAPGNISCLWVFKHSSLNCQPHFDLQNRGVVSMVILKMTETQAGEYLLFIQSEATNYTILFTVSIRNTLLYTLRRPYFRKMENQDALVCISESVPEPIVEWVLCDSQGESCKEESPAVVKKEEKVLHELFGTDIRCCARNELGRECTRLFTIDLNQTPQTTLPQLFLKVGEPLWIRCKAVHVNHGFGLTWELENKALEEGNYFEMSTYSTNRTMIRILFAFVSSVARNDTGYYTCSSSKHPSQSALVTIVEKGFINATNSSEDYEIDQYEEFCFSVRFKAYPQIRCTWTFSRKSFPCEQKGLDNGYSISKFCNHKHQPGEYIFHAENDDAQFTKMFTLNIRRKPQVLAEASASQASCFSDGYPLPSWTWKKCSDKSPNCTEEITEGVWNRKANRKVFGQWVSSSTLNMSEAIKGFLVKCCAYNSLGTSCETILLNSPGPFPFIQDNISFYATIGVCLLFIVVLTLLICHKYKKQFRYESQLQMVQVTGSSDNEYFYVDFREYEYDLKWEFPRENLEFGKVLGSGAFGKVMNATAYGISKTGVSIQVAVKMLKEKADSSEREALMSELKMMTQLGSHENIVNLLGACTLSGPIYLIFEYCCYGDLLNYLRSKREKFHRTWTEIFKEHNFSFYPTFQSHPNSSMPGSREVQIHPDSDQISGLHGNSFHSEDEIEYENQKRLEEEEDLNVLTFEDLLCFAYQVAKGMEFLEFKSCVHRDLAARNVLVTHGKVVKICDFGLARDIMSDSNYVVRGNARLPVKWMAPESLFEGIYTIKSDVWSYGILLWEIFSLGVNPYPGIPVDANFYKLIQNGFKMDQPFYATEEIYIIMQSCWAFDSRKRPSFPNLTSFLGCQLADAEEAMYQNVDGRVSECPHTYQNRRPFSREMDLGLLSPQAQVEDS
Procedure: The terms “IC50” and “EC50” are used interchangeably. As used herein, “EC50” refers to nMolar concentration at median percent inhibition determined by dose respose (DR) assay. As used herein, the term “E1000” refers to percent inhibition at 1000 nMolar determined by assay.
Testing of the compounds described in this invention was carried out using the SelectScreen™ platform from Invitrogen, Inc. (Carlsbad. Calif., USA) and the details of its performance are readily viewed via the web by linking to: http://www.invitrogen.com/downloads/SelectScrn_Brochure.pdf.
Briefly, the approach is based on treating each specific kinase with a unique substrate and optical reporter system in the presence of ATP at 100 micromolar. In controls, the substrate is phosphorylated and a baseline optimal response is recorded.
The compounds were then re-tested by adding graded amounts of putative inhibitor which were added in 5 separate increments to generate a dose response curve. The latter is obtained by fitting to a 4 parameter Hill equation, a sigmoid saturation equation.
For the compounds of this invention, the experimental conditions were as follows. The 2× FLT3/Tyr 02 peptide mixture was prepared in 50 mM HEPES pH 7.5, 0.01 BRIJ-35, 10 mM MgCl2, 1 mM EGTA. The final 10 uL kinase reaction consists of 0.6-76.0 ng FLT3 and 2 uM Tyr 02 peptide in 50 mM HEPES pH 7.5, 0.01% BRIJ-35, 10 mM MgCl2, 1 mM EGTA. After 1 hour kinase reaction incubation, 5 uL of a 1:64 dilution of development reagent A was added.

[1] = system: Raw264.7 (murine macrophage-like cells); assay: sulforhodamine B (SRB) cytotoxicity assay; assay type: cell-based; settings: Mus musculus, RAW264.7, 144 h; 25 μM highest concentration, diluted 1:5; 6 days; read-out: IC50 Measured Against Raw264.7 Cell Line

inhibition at 1 µM (FLT3; 1000 nMolar compound, read-out: FLT3 Inhibition E1000 (percent inhibition at 1000 nMolar))	pEC50 (FLT3)	FLT3 Inhibition E1000 (percent inhibition at 1000 nMolar) (FLT3; 1000 nMolar compound)	Structure (SMILES)	pIC50 [1]
47%	5.88	–	O=c1c2c(F)ccc3ncn(c4ccc5[nH]ncc5c14)c32 [(XVIII)]	–
–	7.42	93%	Cc1nc2cc3nc(-c4cccs4)cnc3cc2n1C [AGL-2043, reference compound]	–
–	7.59	95%	c1ccc(-c2n[nH]c3c2oc2ccccc23)cc1 [GTP-14564, reference compound]	–
–	–	–	CCN(CC)CCNC(=O)c1c(C)[nH]c(/C=C2\C(=O)Nc3ccc(F)cc32)c1C [Sunitinib, sunitinib, reference compound]	6.12
